# In US11629354B2, “Grain with increased nicotianamine” (The United States of America, as represented by the …, priority 2020, dated 2023):
# Columns and labels:
# Type in all cases: in vivo, chicken
# [1] = Intraamniotic administration: Fe and Zn concentration in blood serum and liver; settings: relative to unchelated Fe (Fe) and non-injected groups
# Text: (§1) To generate extracts for administration, wheat flours (CE-OsNAS2, hereinafter “biofortified”; and NS, hereinafter “control”) were mixed in dH2O (50 g/L), filtered (600 μm) and centrifuged, and the resulting supernatant was dialyzed (MWCO 12-14 kDa, Medicell International Ltd., London, UK) exhaustively against dH2O (48 hrs). The dialysate was lyophilized, and the resulting powder dissolved in 18MΩ H2O (0.05 g/mL) forming the white wheat flour extracts for intra-amniotic administration. Iron solutions were prepared by combining an Fe standard (1000 μg/mL, 2% HCl, High-Purity Standards, Charleston, S.C., USA) with either 18MΩ H2O (Fe), or 1.6 mM NA (Toronto Research Chemicals Inc., Toronto, Canada) dissolved in 18MΩ H2O (Fe-NA). The Fe-EDTA solution was achieved by combining ferric nitrate (Fe(NO3)3 9H2O, Sigma, St. Louis, Mo., USA) with hydroxyethyl ethylenediamine triacetic acid (H3HEDTA, Sigma, St. Louis, Mo., USA) dissolved in sodium hydroxide (NaOH, Sigma, St. Louis, Mo., USA) to represent an anionic chelate of dissolved NaFeEDTA with final Fe concentration of 77 μM.
# Cornish-cross fertile broiler eggs (n=70) were obtained from a commercial hatchery (Moyer's chicks, Quakertown, Pa., USA) and incubated until hatching. All methods were performed in accordance with the relevant guidelines and regulations. […]
# intestinal villi = assay: Intraamniotic administration: intestinal functionality (goblet cell number, villi length and width)
# Text: as §1
# For intraamniotic administration, eggs (n=40) containing viable embryos were weighed and randomly assigned to seven groups (n≥5) based on weight distribution. At day 17 of incubation, extracts/Fe solutions (1 mL) were injected into the amniotic fluid via a 21-gauge needle for the seven treatment groups as follows: (1) non-injected (NI); (2) 18MΩ H2O (H2O); (3) Fe solution (Fe); (4) Fe-EDTA solution (Fe-EDTA); (5) Fe-NA solution (Fe-NA); (6) Control white flour extract (C WF); (7) Biofortified white flour extract (B WF) and eggs were subsequently incubated for four days until hatch. Chicks were euthanized by CO2 exposure after hatching and all tissues were collected.
# Intestinal functionality and short-chain fatty acid (SCFA) analysis. […] Samples were quantified via GC-MS using a TRACE™ 1310 gas chromatograph (Thermo Fisher Scientific, Waltham, Mass., USA) and a TraceGOLD™ TG-WaxMS A column (Thermo Fisher Scientific, Waltham, Mass., USA).
# [2] = test system: Lactobacillus, Bifidobacterium, Escherichia, and Clostridium; assay: Intraamniotic administration: cecal microbial population analysis
# Text: To generate extracts for administration, wheat flours (CE-OsNAS2, hereinafter “biofortified”; and NS, hereinafter “control”) were mixed in dH2O (50 g/L), filtered (600 μm) and centrifuged, and the resulting supernatant was dialyzed (MWCO 12-14 kDa, Medicell International Ltd., London, UK) exhaustively against dH2O (48 hrs). The dialysate was lyophilized, and the resulting powder dissolved in 18MΩ H2O (0.05 g/mL) forming the white wheat flour extracts for intra-amniotic administration. Iron solutions were prepared by combining an Fe standard (1000 μg/mL, 2% HCl, High-Purity Standards, Charleston, S.C., USA) with either 18MΩ H2O (Fe), or 1.6 mM NA (Toronto Research Chemicals Inc., Toronto, Canada) dissolved in 18MΩ H2O (Fe-NA). […]
# Microbial population analysis. Lactobacillus, Bifidobacterium, Escherichia, and Clostridium density in intraamniotic administration treatment groups was determined as follows: in brief, cecal contents were homogenized with phosphate-buffered saline (PBS, 9 ml), centrifuged and the pellet resuspended in ethylenediaminetetraacetic acid (EDTA, 50 mM) and treated (37° C., 45 min) with lysozyme (10 mg/mL, Sigma Aldrich CO., St. Louis, Mo., USA). […]
# [3] = relative to other treatment groups
substance,measurement,setting,value
Fe-EDTA,Blood serum Fe concentration,[1],significantly elevated
same,Intestinal villi width,intestinal villi; relative to all treatment groups,increased significantly
same,Goblet cell number in intestinal villi,intestinal villi; [3],decreased significantly
same,Intestinal villi length,intestinal villi; [3],increased significantly
same,abundance of Clostridium in cecum,[2]; relative to C-WF,significantly increased
same,abundance of Escherichia in cecum,[2]; relative to Fe-NA,significantly increased
